In brackets after ≈: the same amount, converted by molar mass. Several values for one entry are separate records, joined by “and”; a condition that tells them apart may be missing. Equal values may be shown once.
Tests used:
AcrB = molecular target: T1, AcrB (Escherichia coli, UniProt P31224); assay: Thermal shift assay with CPM dye; set-up: species or system E. coli; details: AcrB vs apo-protein; > 1°C implies binding
T1 construct: Full length acrB gene was amplified from E. coli; BW25113; His-tag (C); made in house; host or cells: E. coli C43(DE3), plasmid pET21a
Protocol: AcrB overexpression protocol is adopted from Du. et al.[31]. Full length acrB gene was amplified from E. coli. BW25113 using Forward Primer 5′-[…]-3′ Reverse Primer 5′-[…]-3′ and cloned into the plasmid pET21a. The resultant plasmid that would express AcrB with a C-terminal His-tag is transformed into E. coli strain C43(DE3). The cells are induced on reaching A600 = 0.6 and transferred to 18 °C. The culture is harvested by centrifugation and re-suspended in Buffer A (100 mM Sodium Phosphate, 100 mM NaCl, 10 mM Imidazole, pH = 7.4, 100 µg/ml protease inhibitor cocktail from Roche and 5 U/ml DNase I and 5 mg/ml lysozyme). The cells are lysed at 15000 psi using Emulsiflex and centrifuged at 8000 g for removing cell debris. The membrane is isolated by centrifuging the resultant supernatant at 125000 g (see Coomassie stained SDS-PAGE of the purified protein Figure S9). Membrane solubilisation is done using Buffer A and 1.5% DDM (n-Dodecyl-β-D-Maltoside). Ni-NTA chromatography is used to purify the His-tagged protein and eluted in Buffer A with 300 mM Imidazole and 1.5% DDM.
The assay is performed according to protocols established elsewhere. CPM (N- [4-(7-diethylamino-4-methyl-3-coumarinyl) phenyl] maleimide) is a thiol specific fluorochrome (Excitation 387 nm, Emission 463 nm) and is non-fluorescent in an unbound state. The proteins, on thermal unfolding exposes cysteines allowing the CPM to bind and fluoresce. […]. The thermal denaturation is performed in a fluorimeter that is heated from 25 to 90 °C at a ramp rate of 1 °C/min. The Tm is calculated by analysing the melting profiles using Boltzmann Sigmoid function (GraphPad Prism) and ∆Tm is calculated by measuring the difference between the Tm of inhibitor bound protein and the apo-protein.

E. coli ∆nfsB = assay: microbe, parasite or virus in culture; format: cell-based; details: Escherichia coli, read-out: MIC ∆nfsB
Protocol: To assess the biological relevance of the interacting protein and establish the link between nitroreductases to the antibacterial activity of NTC compounds, single (ΔnfsA or ΔnfsB) and double knockouts (ΔnfsA & ΔnfsB) of nitroreductases were generated by phage transduction using strains from the Keio collection.
The inoculum used for all the experiments is derived from a single seed lot that is maintained as glycerol stocks at −80 °C and are sub cultured on LB plate for isolated colonies. Single colony of each strain is grown in M9 medium. All test compound stocks and dilutions are prepared in DMSO. Serial two-fold dilutions of compounds are prepared separately, with the concentrations ranging from 2 mg/mL to 0.015 mg/mL. To 150 µl (3–7 × 10^5 CFU/ml) of bacterial culture in 96 well microtitre plates, 3 μL compound from each of the dilutions is added to respective wells to obtain final concentrations ranging from 40 µg/mL to 0.3 µg/mL of the test compounds. Media control, culture control and appropriate reference drug controls are included. […] Growth is monitored by checking absorbance at 600 nm (A600). […] The samples from MIC and above concentrations are plated for MBC (Minimum Bactericidal Concentration). The samples are diluted 1:10 and plated on LB agar plates. […] The killing kinetics is determined by enumerating survivors at various time points following compound exposure. E. coli cells (~10^7 CFU/ml; A600 of 0.1) are treated with various concentrations (40 µg/mL to 0.3 µg/mL) of compounds in a 96-well microtitre plate. At various time intervals (0 to 8 h), 30 μl volumes of treated cultures are serially diluted and plated on LB agar plates. […] Data is expressed as the log10 CFU for each drug treatment.
The wild-type E. coli strain BW25113 and the entire Keio collection of knockouts[22] is maintained as glycerol stocks at −80 °C in 96-well deep well blocks. […] These are sub cultured in 150 µl of LB broth (Kanamycin 50 ug/ml, except for the wild-type strain) in 96 well microtiter plates and then adapted into M9 medium with 0.4% glucose. […] Cultures of single gene knockouts that show an altered MIC as compared to that of the wild type are scored as ‘Hits’.

T1 sequence (P31224 whole entry): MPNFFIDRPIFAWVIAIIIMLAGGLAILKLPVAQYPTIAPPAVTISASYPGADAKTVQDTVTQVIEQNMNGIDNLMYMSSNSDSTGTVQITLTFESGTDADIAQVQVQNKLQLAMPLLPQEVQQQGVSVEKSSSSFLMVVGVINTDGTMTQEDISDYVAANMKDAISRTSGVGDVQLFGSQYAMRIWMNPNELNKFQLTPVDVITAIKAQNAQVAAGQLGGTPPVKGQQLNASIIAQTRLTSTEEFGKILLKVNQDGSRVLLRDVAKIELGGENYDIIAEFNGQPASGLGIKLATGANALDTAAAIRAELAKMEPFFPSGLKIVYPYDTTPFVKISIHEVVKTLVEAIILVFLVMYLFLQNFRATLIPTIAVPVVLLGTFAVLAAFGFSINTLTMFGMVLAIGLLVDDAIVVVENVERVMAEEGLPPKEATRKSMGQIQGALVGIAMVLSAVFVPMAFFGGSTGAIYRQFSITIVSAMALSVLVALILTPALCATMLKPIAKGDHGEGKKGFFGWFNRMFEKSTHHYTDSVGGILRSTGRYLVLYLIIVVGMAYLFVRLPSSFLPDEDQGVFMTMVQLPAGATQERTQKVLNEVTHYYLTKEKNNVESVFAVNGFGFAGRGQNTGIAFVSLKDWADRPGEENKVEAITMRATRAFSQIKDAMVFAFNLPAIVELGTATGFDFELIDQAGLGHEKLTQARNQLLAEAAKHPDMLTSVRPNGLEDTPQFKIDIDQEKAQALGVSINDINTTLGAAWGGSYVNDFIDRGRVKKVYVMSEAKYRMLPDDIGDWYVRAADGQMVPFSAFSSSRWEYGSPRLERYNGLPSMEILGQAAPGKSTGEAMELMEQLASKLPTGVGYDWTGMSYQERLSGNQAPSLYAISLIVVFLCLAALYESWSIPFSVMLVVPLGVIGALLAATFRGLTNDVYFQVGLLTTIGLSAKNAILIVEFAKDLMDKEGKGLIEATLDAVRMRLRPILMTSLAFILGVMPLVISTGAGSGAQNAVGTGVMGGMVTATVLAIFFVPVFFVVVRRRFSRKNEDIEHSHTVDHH

SMILES | ∆Tm (AcrB) | MIC (E. coli ∆nfsB) [µg/mL]
Cc1sc(NC(=O)c2ccc([N+](=O)[O-])s2)nc1-c1ccccc1 [compound 7, N-(5-Methyl-4-phenylthiazol-2-yl)-5-nitrothiophene-2-carboxamide] | 4.13 °C | > 40
O=C(Nc1nc(-c2ccc(F)cc2F)cs1)c1ccc([N+](=O)[O-])s1 [compound 12, N-(4-(2,4-difluorophenyl)thiazol-2-yl)-5-nitrothiophene-2-carboxamide] | 0.68 °C | 2.5 (≈ 6.81 µM)
O=C(Nc1nc(-c2ccc(F)cc2)cs1)c1ccc([N+](=O)[O-])s1 [compound 15, N-(4-(4-Fluorophenyl)thiazol-2-yl)-5-nitrothiophene-2-carboxamide] | 1.75 °C and < 2 °C | 5 (≈ 14.3 µM)
COc1cc(-c2csc(NC(=O)c3ccc([N+](=O)[O-])s3)n2)ccc1Cl [compound 20, N-(4-(4-chloro-3-methoxyphenyl)thiazol-2-yl)-5-nitrothiophene-2-carboxamide] | 1.86 °C and < 2 °C | 2.5 (≈ 6.32 µM)
O=C1CN(/N=C/c2ccc([N+](=O)[O-])o2)C(=O)N1 [nitrofurantoin, reference compound] |  | 2.5 (≈ 10.5 µM)
